Laboratory results taken from EP0178503A1, “Butenyl derivatives, process for their preparation and medicines containing them” (LUDWIG HEUMANN & CO GMBH, priority 1984, dated 1986).

Biological target: T1, Histamin-H2-Rezeptoren (Cavia porcellus, UniProt P47747)
T1 construct: Kontraktionsfrequenz des isolierten rechten Atriums des Meerschweinchens; from tissue; host or cells: isolated guinea pig (right) atrium
Assay: pA2 determination in vitro on guinea pig atrium (method of Ariens)
Type: biochemical, Meerschweinchen
Settings: Meerschweinchenvorhof, H2-antagonistic activity, Molec. Pharmac., Band 1 (1964)
Source text: Die pharmakologische Aktivität dieser Verbindungen kann nach einer modifizierten Methode gemäß der DE OS 2734070 beim perfundierten Rattenmagen gezeigt werden oder durch die Ermittlung der pA2-Werte in vitro am Meerschweinchenvorhof (vergleiche Ariens, Molec. Pharmac., Band 1, Academic Press, New York, 1964) nachgewiesen werden.

T1 sequence (P47747 whole entry): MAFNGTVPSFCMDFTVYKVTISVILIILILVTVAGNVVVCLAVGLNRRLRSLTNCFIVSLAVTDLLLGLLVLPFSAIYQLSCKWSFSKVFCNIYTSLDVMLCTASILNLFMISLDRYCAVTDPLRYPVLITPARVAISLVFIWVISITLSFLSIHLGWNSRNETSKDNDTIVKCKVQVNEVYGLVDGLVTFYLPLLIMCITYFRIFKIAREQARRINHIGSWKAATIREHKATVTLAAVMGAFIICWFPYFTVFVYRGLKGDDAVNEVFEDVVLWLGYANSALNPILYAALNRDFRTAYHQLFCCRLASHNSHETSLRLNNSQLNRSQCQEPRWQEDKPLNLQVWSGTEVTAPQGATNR

SMILES: CNC(=C[N+](=O)[O-])NCC=CCOc1cccc(CN2CCCCC2)c1 [Beispiel 4, 1-Methylamino-1-[4-[3-(piperidinomethyl)phenoxy]but-2-enyl] amino-2-nitro-ethylen]
- Kb: 31.6 nM
